# pEC50: −log10 of the molar value. Marks after values point to notes of the source that are not given here.
# What was measured:
# CMV = test: In vitro antiviral activity in cell culture, CMV; type: cell-based, cytomegalovirus; settings: dsDNA viruses including CMV and AdV
# VZV = test: In vitro antiviral activity in cell culture, VZV; type: cell-based, varicella-zoster virus; settings: Human alphaherpesvirus 3
# HHV-6(B) = test: In vitro antiviral activity in cell culture, HHV-6(B); type: cell-based, human herpesvirus 6; settings: Human betaherpesvirus 6, B-cell
# [1] = parameters: species or system human (healthy subjects); settings: human, in vivo
# Procedure: For this reason, in Study HDP-CDV-201, HDP-CDV was administered to fasted subjects. […] For this reason, in future studies, HDP-CDV may be administered with a food whenever possible.
# However, the clinical significance of these findings is currently unknown and anecdotal reports indicate that gastrointestinal symptoms during HDP-CDV therapy may be mitigated by administration of HDP-CDV with food. […] In Study HDP-CDV-301, HDP-CDV is dosed with food; there is no restriction on the amount or type of food eaten. Therefore, evidence of the effectiveness of HDP-CDV is established in Study […] in subjects who receive HDP-CDV in the fed state.
# [2] = Study HDP-CDV-201 post hoc analysis of preemptive therapy with anti-CMV STOC during follow-up; type: in vivo, human (HCT recipients)
# Procedure: Subjects who developed CMV infection or disease at any time during the up to 11-week treatment period (through approximately 100 days posttransplant) were discontinued from study treatment (i.e., HDP-CDV or placebo) and followed for a period of 4 weeks, while subjects who completed the treatment period were followed for a period of 8 weeks. After study treatment was discontinued, subjects were treated with PrT for CMV infection/disease.
# Among the study population (N=230 subjects), subjects who received STOC for PrT, defined as receiving at least one of GCV, vGCV, FOS or IV CDV for the explicit treatment of CMV infection/disease during the follow-up (“FU”) period, were identified. […]
# Baseline measures for clinical laboratory values were defined as the last value on or before the last day of study treatment. The maximal decrease in ANC was determined using the minimum value reported after the last day of study treatment. The maximal increase in serum creatinine was determined using the maximum value reported after the last day of study treatment. […]
# AEs were counted if the onset day was after the last day of study treatment. […] P-values were determined using Fisher's exact test for binary data and an independent t-test (pooled) for continuous data.
# [3] = Study HDP-CDV-106: safety and PK in subjects with impaired hepatic function; type: in vivo, human
# Procedure: Subjects with moderate hepatic impairment and matched healthy control subjects with normal hepatic function were enrolled and dosed first in Cohort 1, each receiving a single 200 mg dose of HDP-CDV under fasting conditions. The safety, tolerability and PK data from these subjects was reviewed prior to initiating dosing in subjects with severe hepatic impairment in Cohort 2. The study was conducted at four centers in the USA. Up to approximately 24 male and female subjects were planned to be enrolled in this study, including 8 subjects with moderate hepatic impairment and 8 matched healthy control subjects in Cohort 1 and 8 subjects with severe hepatic impairment in Cohort 2. The severity of hepatic impairment was assessed according to the Child-Pugh-Turcotte (CPT) score. Assessments are as follows: CPT Class B (moderate impairment) has a score of 7 to 9 points; and Class C (severe impairment) has a score of >9 points. For the purposes of this study, Cohort 2 subjects were required to have a CPT score of 10 or 11.
# CYP3A = type: in vitro ADME
# P-gp = P-gp (Homo sapiens, UniProt P08183); test: P-gp inhibition in vitro; type: in vitro ADME; settings: in vitro results
# Sequence of P-gp (P08183 whole entry): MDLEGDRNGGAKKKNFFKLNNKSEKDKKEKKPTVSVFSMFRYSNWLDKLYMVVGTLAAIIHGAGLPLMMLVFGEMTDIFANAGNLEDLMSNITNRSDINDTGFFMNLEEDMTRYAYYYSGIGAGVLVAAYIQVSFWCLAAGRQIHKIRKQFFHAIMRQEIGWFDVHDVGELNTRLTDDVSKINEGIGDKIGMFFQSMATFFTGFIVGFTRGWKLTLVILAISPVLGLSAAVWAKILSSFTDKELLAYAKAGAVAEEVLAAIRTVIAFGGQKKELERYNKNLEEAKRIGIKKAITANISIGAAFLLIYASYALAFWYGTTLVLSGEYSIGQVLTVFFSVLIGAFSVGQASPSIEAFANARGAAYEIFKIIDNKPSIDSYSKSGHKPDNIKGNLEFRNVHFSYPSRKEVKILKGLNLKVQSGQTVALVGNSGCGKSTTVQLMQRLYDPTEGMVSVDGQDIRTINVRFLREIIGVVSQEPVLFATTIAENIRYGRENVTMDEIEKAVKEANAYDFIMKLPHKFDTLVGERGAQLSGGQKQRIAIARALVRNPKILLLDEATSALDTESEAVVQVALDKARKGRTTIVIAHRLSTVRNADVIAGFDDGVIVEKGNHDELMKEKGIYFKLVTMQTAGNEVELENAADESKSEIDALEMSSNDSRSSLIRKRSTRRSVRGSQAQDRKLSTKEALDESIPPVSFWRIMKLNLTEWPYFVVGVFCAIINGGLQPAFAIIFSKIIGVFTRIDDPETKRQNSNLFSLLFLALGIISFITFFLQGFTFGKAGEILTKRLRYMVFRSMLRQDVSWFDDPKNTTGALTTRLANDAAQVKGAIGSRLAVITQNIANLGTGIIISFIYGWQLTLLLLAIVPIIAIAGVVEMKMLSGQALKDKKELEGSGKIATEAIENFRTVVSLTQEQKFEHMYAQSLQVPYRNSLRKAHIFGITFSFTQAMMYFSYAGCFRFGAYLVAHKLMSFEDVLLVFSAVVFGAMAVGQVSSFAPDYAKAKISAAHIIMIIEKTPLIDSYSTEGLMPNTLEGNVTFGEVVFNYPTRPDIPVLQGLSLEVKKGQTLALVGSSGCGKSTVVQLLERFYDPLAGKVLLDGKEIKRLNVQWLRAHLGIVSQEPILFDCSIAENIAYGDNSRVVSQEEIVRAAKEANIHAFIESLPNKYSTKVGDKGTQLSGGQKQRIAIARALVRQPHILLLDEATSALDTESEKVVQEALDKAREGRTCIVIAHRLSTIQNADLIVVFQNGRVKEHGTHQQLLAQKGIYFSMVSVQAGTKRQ
# Excerpt: Due to this potential interaction, digoxin is excluded medication in Study HDP-CDV-301 (see Example 5).
# [4] = Study HDP-CDV-350: safety, adverse events and disposition; type: in vivo, human (allogeneic HCT recipients)
# Procedure: Subjects underwent extensive safety monitoring, including routine safety laboratory assessments, physical examination, and vital sign measurements at regular intervals. In addition, subjects were monitored for viral DNA burden in plasma (DNAemia) and other affected compartments (e.g., urine, stool, CSF, etc.). Assessments were performed weekly for the first month, every 1 or 2 weeks for the next 2 months, and monthly thereafter for as long as treatment was continued. Subjects were monitored for adverse events (AEs) and for selected concomitant medication throughout the entire study, including the 1 month posttreatment follow-up period.
# Given that subjects had to have a serious or life-threatening disease and/or to have failed other available treatment options in order to qualify for this study, there was an expected high frequency of AEs in the study population overall. With the exception of diarrhea, with or without associated GI signs and symptoms, the vast majority of AEs were attributed to the underlying conditions of the subjects and not to HDP-CDV administration.
# [5] = human, in vivo
# Excerpt: ESRD patients not on dialysis have no ability to eliminate the metabolite CDV. As such, specific labeling for ESRD patients not currently on dialysis may not be sought. Furthermore, such subjects are/may be excluded from future studies with HDP-CDV.
# [6] = parameters: species or system human; settings: in vivo
# Excerpt: Plasma samples were collected during the study to assess weekly trough concentrations of HDP-CDV and CDV. […] There was no evidence for increasing weekly trough CDV plasma concentrations; therefore, plasma concentrations are not presented in this document.
# [7] = mouse, in vivo
# [8] = cynomolgus monkey, in vivo
# [9] = in vivo
# [10] = 16 subjects, 100 mg BIW adults or 2 mg/kg BIW pediatrics
structure (smiles),measurement,setting,value
CCCCCCCCCCCCCCCCOCCCOP(=O)(O)COC(CO)Cn1ccc(N)nc1=O (stereo not shown) [HDP-CDV],"higher potency in comparison to cidofovir, ganciclovir and other nucleoside analogs",CMV,100 to 1000 fold
same,pEC50,VZV,9.40
same,pEC50,HHV-6(B),8.15
same,reduction of peak plasma concentration (Cmax),[1],48%
same,reduction of systemic exposure (AUCinf),[1],28%
same,"systemic exposure, tablet lower than oral solution",[1]; po,about 13%
same,rate of preemption,[2]; 100 mg twice-weekly (11/50),22.0%
same,incidence of preemptive therapy with anti-CMV STOC,[2]; four cohorts ≧100 mg HDP-CDV per week (38 of 146),26.0%
same,effect of hepatic impairment on percentage bound to plasma protein,"[3]; human, in vivo",did not affect
same,need for dose adjustment in hepatic disease,[3]; moderate or severe hepatic disease,no HDP-CDV dose adjustment is warranted
same,inhibition of CYP3A activity in vitro,CYP3A,moderate inhibitor
same,inhibition of P-gp,P-gp,may inhibit P-gp
same,Reason for Premature Study Discontinuation: Death,[4]; [10],7 (44%)
same,Reasons for Premature HDP-CDV Treatment Discontinuation: Death,[4]; [10],4 (25%)
same,Reasons for Premature HDP-CDV Treatment Discontinuation: Other,"[4]; 16 subjects, both completed the maximum 6 months treatment without resolution of CMV infection",2 (13%)^i
same,Treatment-related Adverse Events: Colitis,"[4]; human, in vivo",1 (6%) No. of Subjects (%)
same,Treatment-related Adverse Events: Decreased appetite,"[4]; human, in vivo",1 (6%) No. of Subjects (%)
same,Treatment-related Adverse Events: Diarrhea,"[4]; human, in vivo",12 (75%) No. of Subjects (%)
same,Treatment-related Adverse Events: Flatulence,"[4]; human, in vivo",1 (6%) No. of Subjects (%)
same,Treatment-related Adverse Events: Liver function tests abnormal,"[4]; human, in vivo",3 (19%) No. of Subjects (%)
same,Treatment-related Adverse Events: Nausea,"[4]; human, in vivo",2 (13%) No. of Subjects (%)
same,Treatment-related Adverse Events: Neutropenia,"[4]; human, in vivo",1 (6%) No. of Subjects (%)
same,tolerability,[4]; in vivo,generally well-tolerated
same,need for dosage adjustment in renal impairment,[5],no adjustment of HDP-CDV dosage is required
same,weekly trough HDP-CDV concentrations,[6],near or below the lower limit of quantification
same,ALT increases in individual animals,[7],up to 5 fold
same,ALT change,[8],dose-related increases in ALT which were quickly reversible after cessation of dosing
same,Minor increases in ALT,[9],2-5 fold

# Reference: patent publication US20140303092A1 (CHIMERIX, INC., priority 2011, published 2014)
